Test results: PubChem BioAssay AID1259408 (Genetic Toxicology Data Bank (GENE-TOX), 2018)
Activity calls are given as the source filed them. How the calls were made is not given here.

Test system: GENE-TOX genotoxicity assays, various organisms and cells
Test: GENE-TOX mutagenicity studies
Settings: for call: Assay Type: In vivo carcinogenicity studies, Assay Code: CCG+
[1] = Species/Cell Type: Salmonella typhimurium (one or more of the five standard strains: TA98, TA100, TA1535, TA1537, and TA1538), Assay Type: Histidine reverse gene mutation, Ames assay, Assay Code: SALT, Evaluation Type: Evaluation A (Pre-1980)
[2] = Species/Cell Type: Nonhuman, Evaluation Type: Evaluation A (Pre-1980)
[3] = Species/Cell Type: Syrian hamster embryo (SA7/SHE) cells, Assay Type: Cell transformation, viral enhanced, Assay Code: CT7+, Evaluation Type: Evaluation A (Pre-1980)
[4] = Species/Cell Type: Syrian hamster embryo (SHE) cells, Assay Type: Cell transformation, clonal assay, Assay Code: CTC+, Evaluation Type: Evaluation A (Pre-1980)

[Cl][Cr]([Cl])[Cl]
mutagenic call (Species/Cell Type: Bacillus subtilis (H17 vs M45), Assay Type: Rec-assay, spot test, DNA effects (bacterial DNA repair), Assay Code: REW-, Evaluation Type: Evaluation A (Pre-1980)): inactive; negative
mutagenic call (Species/Cell Type: Human lymphocytes, Assay Type: Sister-chromatid exchange (SCE) in vitro, Assay Code: SCL-, Evaluation Type: Evaluation B (Post-1980)): inactive; negative
mutagenic call (Species/Cell Type: Human, Assay Type: Sister-chromatid exchange (SCE) in vitro, Assay Code: SC1-, Evaluation Type: Evaluation B (Post-1980)): inactive; negative
mutagenic call (Species/Cell Type: Mammalian oocytes or early embryo, Assay Type: Chromosome aberrations in vivo, Assay Code: CYO-, Evaluation Type: Evaluation A (Pre-1980)): inactive; negative
mutagenic call (Species/Cell Type: Nonhuman, Assay Type: Sister-chromatid exchange (SCE) in vitro, Assay Code: SC2+, Evaluation Type: Evaluation B (Post-1980)): active; positive
mutagenic call (Species/Cell Type: Nonhuman, Assay Type: Sister-chromatid exchange (SCE) in vitro, Assay Code: SC2T, Evaluation Type: Evaluation B (Post-1980)): no conclusion
mutagenic call [1]: no conclusion

COc1c(O)c2c(c3cc(C(=O)N4CCc5c4c(O)c(OC)c4[nH]c(C(=O)N6C[C@H]7C[C@@]78C6=CC(=O)c6[nH]cc(C)c68)cc54)[nH]c13)CCN2C(N)=O
mutagenic call (Species/Cell Type: Mammalian polychromatic erythrocytes, Assay Type: Micronucleus test, chromosome aberrations, Assay Code: MNT+, Evaluation Type: Evaluation B (Post-1980)): active; positive

Cn1c[n+](C)cc1[N+](=O)[O-]
mutagenic call [1]: no conclusion

C/C=C\C(=O)O[C@@H]1C[C@H]2O[C@@H]3C=C(C)[C@@H]4O[C@@H]4[C@]3(C)C1(C)[C@]21CO1
mutagenic call [1]: no conclusion

Nc1ccc(-c2ccc(N)cc2)cc1
mutagenic call (Species/Cell Type: Drosophila melanogaster, Assay Type: Sex-linked recessive lethal gene mutation, Assay Code: SRL-, Evaluation Type: Evaluation A (Pre-1980)): inactive; negative
mutagenic call (Species/Cell Type: Escherichia coli polA (W3119 vs P3478), Assay Type: Rec-assay, DNA effects (bacterial DNA repair), Assay Code: RE1T, Evaluation Type: Evaluation A (Pre-1980)): no conclusion
mutagenic call (Species/Cell Type: Fischer rat embryo (RLV/1706) cells, Assay Type: Cell transformation, viral enhanced, Assay Code: CTR+, Evaluation Type: Evaluation A (Pre-1980)): active; positive
mutagenic call (Species/Cell Type: Human diploid fibroblasts, Assay Type: Unscheduled DNA synthesis (UDS) in vitro, DNA effects, Assay Code: UDHT, Evaluation Type: Evaluation A (Pre-1980)): no conclusion
mutagenic call (Species/Cell Type: Human, Assay Type: Sister-chromatid exchange (SCE) in vitro, Assay Code: SC1+D*, Activation: With metabolic activation, Dose Response: With dose response, Evaluation Type: Evaluation B (Post-1980)): active; positive
mutagenic call (Species/Cell Type: Mammalian polychromatic erythrocytes, Assay Type: Micronucleus test, chromosome aberrations, Assay Code: MNT+, Evaluation Type: Evaluation A (Pre-1980)): active; positive
mutagenic call (Species/Cell Type: Mouse embryo (AKR/ME) cells, Assay Type: Cell transformation, Assay Code: CTK+, Evaluation Type: Evaluation A (Pre-1980)): active; positive
mutagenic call (Species/Cell Type: Mouse, Sex: Male, Assay Type: Sperm morphology, Assay Code: SPI-, Evaluation Type: Evaluation A (Pre-1980)): inactive; negative
call [2]: active; positive
mutagenic call (Species/Cell Type: Nonhuman, Assay Type: Sister-chromatid exchange (SCE) in vitro, Assay Code: SC2+D*, Activation: With metabolic activation, Dose Response: With dose response, Evaluation Type: Evaluation B (Post-1980)): active; positive
mutagenic call (Species/Cell Type: Nonhuman, Assay Type: Sister-chromatid exchange (SCE) in vivo, Assay Code: SC3+, Evaluation Type: Evaluation B (Post-1980)): active; positive
mutagenic call (Species/Cell Type: Rat primary hepatocytes, Assay Type: Unscheduled DNA synthesis (UDS) in vitro, DNA effects, Assay Code: UDP+, Evaluation Type: Evaluation A (Pre-1980)): active; positive
mutagenic call (Species/Cell Type: Salmonella typhimurium (one or more of the five standard strains: TA98, TA100, TA1535, TA1537, and TA1538), Assay Type: Histidine reverse gene mutation, Ames assay, Assay Code: SAL+*, Activation: With metabolic activation, Evaluation Type: Evaluation A (Pre-1980)): active; positive
mutagenic call [3]: active; positive
mutagenic call [4]: active; positive
mutagenic call (Species/Cell Type: Tradescantia species, Assay Type: Gene mutation, Assay Code: TRM+D, Dose Response: With dose response, Evaluation Type: Evaluation A (Pre-1980)): active; positive

NC(Cc1cccc(F)c1)C(=O)O (stereo not drawn)
mutagenic call (Species/Cell Type: Neurospora crassa, Assay Type: Aneuploidy, chromosome aberrations, Assay Code: NEN-, Evaluation Type: Evaluation A (Pre-1980)): inactive; negative

O=CC1CO1 (stereo not drawn)
mutagenic call (Species/Cell Type: Escherichia coli polA (W3119 vs P3478), Assay Type: Rec-assay, DNA effects (bacterial DNA repair), Assay Code: RE1+, Evaluation Type: Evaluation A (Pre-1980)): active; positive
mutagenic call (Species/Cell Type: Human diploid fibroblasts, Assay Type: Unscheduled DNA synthesis (UDS) in vitro, DNA effects, Assay Code: UDH+, Evaluation Type: Evaluation A (Pre-1980)): active; positive
mutagenic call (Species/Cell Type: Mouse (BALB/c-3T3) cells, Assay Type: Cell transformation, Assay Code: CTB+D, Dose Response: With dose response, Evaluation Type: Evaluation A (Pre-1980)): active; positive
call [2]: active; positive
mutagenic call (Species/Cell Type: Saccharomyces cerevisiae, Assay Type: Mitotic recombination or gene conversion, Assay Code: YEH+, Evaluation Type: Evaluation A (Pre-1980)): active; positive
mutagenic call (Species/Cell Type: Salmonella typhimurium (one or more of the five standard strains: TA98, TA100, TA1535, TA1537, and TA1538), Assay Type: Histidine reverse gene mutation, Ames assay, Assay Code: SAL+, Evaluation Type: Evaluation A (Pre-1980)): active; positive
mutagenic call (Species/Cell Type: Salmonella typhimurium, Assay Type: Forward and reverse gene mutation, host-mediated assay, Assay Code: HMA+, Evaluation Type: Evaluation A (Pre-1980)): active; positive
mutagenic call [4]: active; positive

NC(=O)CCl
mutagenic call [3]: active; positive

O=CCC=O
mutagenic call [1]: no conclusion

CC(C)NCC(O)COc1cccc2[nH]ccc12 (stereo not drawn)
mutagenic call (Species/Cell Type: Mammalian polychromatic erythrocytes, Assay Type: Micronucleus test, chromosome aberrations, Assay Code: MNTT, Evaluation Type: Evaluation B (Post-1980)): no conclusion
